Data on 20 molecules can be found in patent US20230322767A1, “ARYL SUBSTITUTED PYRROLO-PYRIDINONES AND THERAPEUTIC USES THEREOF” (Bayer Aktiengesellschaft, priority 2020, published 2023).

Format in all cases: biochemical
Assay [1] addresses wild-type Epidermal Growth Factor Receptor (EGFR) (Homo sapiens (Human), UniProt P00533). Put plainly: WT-EGFR Kinase Assay (TR-FRET, 2 mM ATP). Conditions: EGFR Wildtyp 2 mM ATP IC50 [mol/l] (median), median or individual measurements. A digest of the protocol: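 GST-tagged human EGFR (R669–A1210, Sf9-expressed) preincubated 15 min at 22° C with compound in pH 7.0 Hepes/MgCl2 buffer, then reacted at 2 mM ATP with a biotinylated peptide substrate. Phosphorylation detected by TR-FRET (streptavidin-XL665, Tb-cryptate anti-phosphotyrosine) as the 665/620 nm emission ratio.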
For orientation: Time-resolved FRET reads energy transfer from a long-lived donor to a nearby acceptor.

The next assay addresses CSNK1D (Homo sapiens (Human), UniProt P48730). The assay can be described thus: CSNK1D Assay (ADP-Glo, 1 μM ATP). The note with it: median, read-out: CSNK1D IC50 [mol/l] (median). A digest of the protocol:
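Enzyme preincubated with compound 15 min at 22° C in 50 mM HEPES pH 7.5 buffer with 10 mM MgCl2, 1 mM DTT; kinase reaction run at 1 μM ATP with biotinylated peptide substrate. ADP formed was detected by ADP-Glo luminescence as the measure of activity.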
(In general: ADP-Glo turns the ADP formed in a reaction into a luminescent signal.)

A further assay has as its target CSNK1A1 (Homo sapiens (Human), UniProt P48729). Put plainly: CSNK1A1 Assay 2 (ADP-Glo, 1 μM ATP). Conditions: median, read-out: CSNK1A1 Assay 2 IC50 [mol/l] (median). The method in brief: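 Enzyme (~0.0375 ng/μL) preincubated 15 min at 22° C with compound in HEPES pH 7.5 buffer, then reacted with 1 μM ATP and biotin-Ahx-KRRRAL-pS-VASLPGL peptide. ADP product measured by ADP-Glo luminescence after 1 h ATP depletion and 1 h detection at 22° C.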

The structures appear in SMILES notation. A value given as a limit tells only on which side of the number the result lay.

CSNK1A1, sequence (P48729 whole entry): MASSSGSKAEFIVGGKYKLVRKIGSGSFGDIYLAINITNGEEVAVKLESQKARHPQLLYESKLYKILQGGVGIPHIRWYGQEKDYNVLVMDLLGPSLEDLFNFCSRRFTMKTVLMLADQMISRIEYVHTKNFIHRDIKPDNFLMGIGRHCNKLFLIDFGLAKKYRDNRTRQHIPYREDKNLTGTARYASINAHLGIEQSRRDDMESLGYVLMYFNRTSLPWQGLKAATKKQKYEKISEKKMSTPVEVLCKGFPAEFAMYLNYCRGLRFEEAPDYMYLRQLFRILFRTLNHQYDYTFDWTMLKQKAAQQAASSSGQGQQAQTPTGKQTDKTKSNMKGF
wild-type Epidermal Growth Factor Receptor (EGFR), sequence (P00533 669-1210): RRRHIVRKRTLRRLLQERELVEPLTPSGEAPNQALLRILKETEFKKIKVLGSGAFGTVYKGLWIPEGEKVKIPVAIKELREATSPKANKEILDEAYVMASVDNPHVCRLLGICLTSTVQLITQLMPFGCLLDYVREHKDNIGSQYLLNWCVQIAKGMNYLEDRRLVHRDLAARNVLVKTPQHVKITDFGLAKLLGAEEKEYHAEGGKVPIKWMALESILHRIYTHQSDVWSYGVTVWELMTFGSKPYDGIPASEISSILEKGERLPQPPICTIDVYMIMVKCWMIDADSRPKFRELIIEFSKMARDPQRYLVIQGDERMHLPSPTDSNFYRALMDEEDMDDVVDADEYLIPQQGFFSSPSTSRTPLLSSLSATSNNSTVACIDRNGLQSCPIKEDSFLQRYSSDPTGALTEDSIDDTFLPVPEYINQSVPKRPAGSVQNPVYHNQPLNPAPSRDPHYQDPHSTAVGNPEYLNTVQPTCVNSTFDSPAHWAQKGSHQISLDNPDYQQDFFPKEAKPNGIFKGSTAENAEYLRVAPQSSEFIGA
CSNK1D, sequence (P48730 whole entry): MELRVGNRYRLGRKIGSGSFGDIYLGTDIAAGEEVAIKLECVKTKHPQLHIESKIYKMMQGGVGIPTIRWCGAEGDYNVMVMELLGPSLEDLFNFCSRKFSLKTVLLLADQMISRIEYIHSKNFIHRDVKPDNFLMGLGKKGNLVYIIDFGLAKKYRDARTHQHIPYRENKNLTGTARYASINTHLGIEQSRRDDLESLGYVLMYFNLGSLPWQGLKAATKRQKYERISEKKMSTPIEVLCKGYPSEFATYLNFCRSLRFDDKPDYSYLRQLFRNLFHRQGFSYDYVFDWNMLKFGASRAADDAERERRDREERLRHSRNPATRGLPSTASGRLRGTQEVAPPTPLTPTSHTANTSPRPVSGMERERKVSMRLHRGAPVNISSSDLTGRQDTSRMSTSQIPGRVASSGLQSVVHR

Take `Cn1cc(CC2CC2)c2[nH]c(-c3ccnc(NC(=O)C(CC(F)F)c4ccc(F)cc4)c3)c(-c3ccc(F)cc3)c2c1=O` (racemic) [Example 65, N-{4-[7-(cyclopropylmethyl)-3-(4-fluorophenyl)-5-methyl-4-oxo-4,5-dihydro-1H-pyrrolo[3,2-c]pyridin-2-yl]pyridin-2-yl}-4,4-difluoro-2-(4-fluorophenyl)butanamide]: the IC50 in assay [1] is over 20000 nM; on CSNK1D, 6.6 nM; at CSNK1A1, 11 nM.
In the same order, the values of `CN1CCc2[nH]c(-c3ccnc(NC(=O)C(CC(F)F)c4ccc(F)cc4)c3)c(-c3ccc(F)cc3F)c2C1=O` (racemic) [Example 66, N-{4-[3-(2,4-difluorophenyl)-5-methyl-4-oxo-4,5,6,7-tetrahydro-1H-pyrrolo[3,2-c]pyridin-2-yl]pyridin-2-yl}-4,4-difluoro-2-(4-fluorophenyl)butanamide] are over 20000 nM, 3.2 nM and 4.4 nM.
`CC(C(=O)Nc1cc(-c2[nH]c3c(c2-c2ccc(F)cc2F)C(=O)N(C)CC3)ccn1)c1ccc(F)cc1` (racemic) [Example 69, N-{4-[3-(2,4-difluorophenyl)-5-methyl-4-oxo-4,5,6,7-tetrahydro-1H-pyrrolo[3,2-c]pyridin-2-yl]pyridin-2-yl}-2-(4-fluorophenyl)propanamide]: the IC50 is over 20000 nM in assay [1], 2.8 nM at CSNK1D and 3.1 nM on CSNK1A1.
The matching figures for `CC(C(=O)Nc1cc(-c2[nH]c3c(c2-c2ccccc2)C(=O)NCC3)ccn1)c1ccc(F)cc1` (racemic) [Example 74, 2-(4-fluorophenyl)-N-[4-(4-oxo-3-phenyl-4,5,6,7-tetrahydro-1H-pyrrolo[3,2-c]pyridin-2-yl)pyridin-2-yl]propanamide]: over 20000 nM, 3 nM and 1.6 nM.
In the case of `O=C1NCCc2[nH]c(-c3ccnc(NC(=O)C(CC(F)F)c4ccc(F)cc4)c3)c(-c3ccccc3)c21` (racemic) [Example 75, 4,4-difluoro-2-(4-fluorophenyl)-N-[4-(4-oxo-3-phenyl-4,5,6,7-tetrahydro-1H-pyrrolo[3,2-c]pyridin-2-yl)pyridin-2-yl]butanamide], the values for the IC50 (in assay [1]; on CSNK1D; at CSNK1A1) were over 20000 nM, 4.5 nM and 2.7 nM, respectively.
For the molecule `CN1C(=O)c2c([nH]c(-c3ccnc(NC(=O)C(CC(F)F)c4ccc(F)cc4)c3)c2-c2ccccc2)CC12CC2` (racemic) [Example 80, 4,4-difluoro-2-(4-fluorophenyl)-N-[4-(5′-methyl-4′-oxo-3′-phenyl-1′,4′,5′,7′-tetrahydrospiro-[cyclopropane-1,6′-pyrrolo[3,2-c]pyridin]-2′-yl)pyridin-2-yl]butanamide], the IC50 in assay [1] was over 20000 nM; on CSNK1D, 5.1 nM; at CSNK1A1, 4.7 nM.
In the same order, the values of `CN1C(=O)c2c([nH]c(-c3ccnc(NC(=O)C(CC(F)F)c4ccc(F)cc4)c3)c2-c2ccc(F)cc2)CC12CC2` (racemic) [Example 81, 4,4-difluoro-2-(4-fluorophenyl)-N-{4-[3′-(4-fluorophenyl)-5′-methyl-4′-oxo-1′,4′,5′,7′-tetrahydro-spiro[cyclopropane-1,6′-pyrrolo[3,2-c]pyridin]-2′-yl]pyridin-2-yl}butanamide] are over 20000 nM, 4.3 nM and 4.6 nM.
The matching figures for `Cc1cccc(-c2c(-c3ccnc(NC(=O)C(C)c4ccc(F)cc4)c3)[nH]c3c2C(=O)NC(C)(C)C3)c1` (racemic) [Example 88, N-{4-[6,6-dimethyl-3-(3-methylphenyl)-4-oxo-4,5,6,7-tetrahydro-1H-pyrrolo[3,2-c]pyridin-2-yl]pyridin-2-yl}-2-(4-fluorophenyl)propanamide]: over 20000 nM, 11 nM and 8.6 nM.
In the same order, the values of `CC(C(=O)Nc1cc(-c2[nH]c3c(c2-c2ccc(Cl)cc2)C(=O)NC(C)(C)C3)ccn1)c1ccc(F)cc1` (racemic) [Example 89, N-{4-[3-(4-chlorophenyl)-6,6-dimethyl-4-oxo-4,5,6,7-tetrahydro-1H-pyrrolo[3,2-c]pyridin-2-yl]pyridin-2-yl}-2-(4-fluorophenyl)propanamide] are over 20000 nM, 4.3 nM and 6.8 nM.
As for `Cc1ccc(-c2c(-c3ccnc(NC(=O)C(C)c4ccc(F)cc4)c3)[nH]c3c2C(=O)NC(C)(C)C3)cc1` (racemic) [Example 91, N-{4-[6,6-dimethyl-3-(4-methylphenyl)-4-oxo-4,5,6,7-tetrahydro-1H-pyrrolo[3,2-c]pyridin-2-yl]pyridin-2-yl}-2-(4-fluorophenyl)propanamide], the IC50 in assay [1] is over 20000 nM; on CSNK1D, 7.6 nM; at CSNK1A1 it was 7.7 nM.
The matching figures for `CC(C(=O)Nc1cc(-c2[nH]c3c(c2-c2ccc(F)cc2)C(=O)NC(C)(C)C3)ccn1)c1ccc(F)cc1` (racemic) [Example 94, 2-(4-fluorophenyl)-N-{4-[3-(4-fluorophenyl)-6,6-dimethyl-4-oxo-4,5,6,7-tetrahydro-1H-pyrrolo[3,2-c]pyridin-2-yl]pyridin-2-yl}propanamide]: over 20000 nM, 3.2 nM and 3 nM.
Regarding `CC(C(=O)Nc1cc(-c2[nH]c3c(c2-c2cccnc2)C(=O)NC(C)(C)C3)ccn1)c1ccc(F)cc1` (racemic) [Example 97, N-{4-[6,6-dimethyl-4-oxo-3-(pyridin-3-yl)-4,5,6,7-tetrahydro-1H-pyrrolo[3,2-c]pyridin-2-yl]pyridin-2-yl}-2-(4-fluorophenyl)propanamide], the results for the IC50 (in assay [1]; on CSNK1D; at CSNK1A1) were over 20000 nM, 14 nM and 8.1 nM, respectively.
In the same order, the values of `CC(C(=O)Nc1cc(-c2[nH]c3ccn(C)c(=O)c3c2-c2ccc(F)cc2)ccn1)c1ccc(F)cc1` (racemic) [Example 100, 2-(4-fluorophenyl)-N-{4-[3-(4-fluorophenyl)-5-methyl-4-oxo-4,5-dihydro-1H-pyrrolo[3,2-c]pyridin-2-yl]pyridin-2-yl}propanamide] are over 20000 nM, 8.6 nM and 5.9 nM.
In the case of `CC1CN(C)C(=O)c2c1[nH]c(-c1ccnc(NC(=O)C(CC(F)F)c3ccc(F)cc3)c1)c2-c1ccccc1` (centres unmarked) [Example 39, N-{4-[5,7-dimethyl-4-oxo-3-phenyl-4,5,6,7-tetrahydro-1H-pyrrolo[3,2-c]pyridin-2-yl]pyridin-2-yl}-4,4-difluoro-2-(4-fluorophenyl)butanamide], the figures for the IC50 at CSNK1D and at CSNK1A1 were 3.7 nM and 3 nM, respectively.
For the molecule `CC1c2[nH]c(-c3ccnc(NC(=O)C(CC(F)F)c4ccc(F)cc4)c3)c(-c3ccccc3)c2C(=O)N(C)C1C` (centres unmarked) [Example 41, 4,4-difluoro-2-(4-fluorophenyl)-N-{4-[5,6,7-trimethyl-4-oxo-3-phenyl-4,5,6,7-tetrahydro-1H-pyrrolo[3,2-c]pyridin-2-yl]pyridin-2-yl}butanamide], the IC50 at CSNK1D is 6.1 nM; on CSNK1A1, 5.7 nM.
The matching figures for `CC1(C)CNC(=O)c2c1[nH]c(-c1ccnc(NC(=O)Cc3ccc(F)cc3)c1)c2-c1ccccc1` [Example 42, N-[4-(7,7-dimethyl-4-oxo-3-phenyl-4,5,6,7-tetrahydro-1H-pyrrolo[3,2-c]pyridin-2-yl)pyridin-2-yl]-2-(4-fluorophenyl)acetamide]: 2.1 nM and 1.2 nM.
The matching figures for `Cn1cc(CC2CC2)c2[nH]c(-c3ccnc(NC(=O)Cc4ccc(F)cc4)c3)c(-c3ccccc3)c2c1=O` [Example 56, N-{4-[7-(cyclopropylmethyl)-5-methyl-4-oxo-3-phenyl-4,5-dihydro-1H-pyrrolo[3,2-c]pyridin-2-yl]pyridin-2-yl}-2-(4-fluorophenyl)acetamide]: 4.8 nM and 4.4 nM.
The matching figures for `CC(C(=O)Nc1cc(-c2[nH]c3c(c2-c2ccccc2)C(=O)N(C)CC3CC2CC2)ccn1)c1ccc(F)cc1` (centres unmarked) [Example 57, N-{4-[7-(cyclopropylmethyl)-5-methyl-4-oxo-3-phenyl-4,5,6,7-tetrahydro-1H-pyrrolo[3,2-c]pyridin-2-yl]pyridin-2-yl}-2-(4-fluorophenyl)propanamide]: 2.9 nM and 4.5 nM.
With `CN1CC(CC2CC2)c2[nH]c(-c3ccnc(NC(=O)C(CC(F)F)c4ccc(F)cc4)c3)c(-c3ccccc3)c2C1=O` (centres unmarked) [Example 59, N-{4-[7-(cyclopropylmethyl)-5-methyl-4-oxo-3-phenyl-4,5,6,7-tetrahydro-1H-pyrrolo[3,2-c]pyridin-2-yl]pyridin-2-yl}-4,4-difluoro-2-(4-fluorophenyl)butanamide], the IC50 was determined as 3.6 nM on CSNK1D and 4.9 nM at CSNK1A1.
In the same order, the values of `CC(C(=O)Nc1cc(-c2[nH]c3c(c2-c2ccc(F)cc2)C(=O)N(C)CC3CC2CC2)ccn1)c1ccc(F)cc1` (centres unmarked) [Example 62, N-{4-[7-(cyclopropylmethyl)-3-(4-fluorophenyl)-5-methyl-4-oxo-4,5,6,7-tetrahydro-1H-pyrrolo[3,2-c]pyridin-2-yl]pyridin-2-yl}-2-(4-fluorophenyl)propanamide] are 4 nM and 7.6 nM.
